According to paper PMC8445934, “Transformation of tenofovir into stable ProTide nanocrystals with long-acting pharmacokinetic profiles” (Nature Communications, 2021):
≈ marks a conversion by molar mass, not a printed value. Where “and” joins values, the source holds several entries; their conditions need not be identical. Equal entries are not always repeated. Where two headings read alike, the source gives them in different places.

How the values were obtained:
[1] = Prodrug stability in human plasma with or without heat-inactivation; format: in vitro ADME
Description: Point 4. “It would be interesting to see what happens with separate injection at 56 days. Will mast cells occur or was a IgG or IGM response measured?”
Response: The transient presence of mast cells at the intramuscular site of injection is a normal physiological tissue injury response and has been previously observed after intramuscular injection of phosphate buffered saline or aqueous nanocrystalline compounds (Journal of the Neurological Sciences […]
al, mast cells could affect host protein adsorption to the particle surface to influence phagocytosis efficiency, lymphatic nanoparticle uptake and prodrug hydrolytic susceptibility. Other findings by Paquette et al. noted that the foreign body response observed following intramuscular or subcutaneous dosing of […]
Res. 2014; 31(8): 2065–2077). […]
immunogenicity markers were previously measured (PLoS One. 2015 Dec 30;10(12):e0145966. doi:
10.1371/journal.pone.0145966). In our prior studies we have assessed temporal leukocyte responses, drug uptake and distribution following multiple site injection of nanoformulated drugs. […]
inflammatory responses heralded drug distribution to macrophage populations, regional lymph nodes, spleen and liver. This proceeded changes in myeloid populations as determined through flow cytometric tests of changed CD45, CD3, CD11b, F4/80, and GR-1 surface markers. […]

HIV-1NL4–3-eGFP = experiment: microbe, parasite or virus in culture; format: cell-based; settings: replicates
Description: Supplementary Fi gur e 9. ProTide Biological Characterizations. […]
(1 picture or pasted object on this page, not shown here)

HIV-1ADA = experiment: Antiretroviral EC50/IC50 in MDM by HIV-1 RT activity after HIV-1ADA challenge; format: cell-based; settings: for EC50: Human immunodeficiency virus 1, 240 h; for HIV-1 RT activity (Figure 2C source data): MDM, HIV-1ADA, replicates
Method: To determine long-term antiretroviral efficacy following a single treatment, MDMs were plated in flat-bottom 12-well plates at a density of 1.2 × 10^6 cells/well. […] After treatment, the cells were washed twice with PBS and cultured in a fresh culture medium without drug with half-media replacement every other day. On days 1, 5, 10, 15, 20, 25, and 30 following treatment, the cells were infected with HIV-1ADA (a macrophage-tropic viral strain) at a multiplicity of infection of 0.1 infectious particles/cell for 8 h. MDM were cultured, and media samples collected on day 10 for the measurement of HIV reverse transcriptase (RT) activity as previously described[64],[65]. Cells were fixed in 2% PFA at each time point, and expression of the HIV-1p24 antigen was determined by immunocytochemistry. […] After 4 h of viral challenge, the cells were washed with PBS and given fresh media that contained the same concentrations of drug (0.00005–5,000 nM). Cell supernatants were collected 10 days later and assayed for HIV-1 RT activity as described above. Replicate studies were performed in CEM-ss CD4+ T-cell cultures. Specifically, cells were plated in 96-well plates, centrifuged at 650 × g for 5 min, and resuspended in (0.1–1,000 nM) drug-containing media for 1 h. The subsequent challenge with HIV-1NL4–3-eGFP, cell culture, sample collection, and determination of HIV-1 RT activity were performed as previously reported[13],[15].

[2] = Aqueous and 1-octanol solubility (excess drug, shaking 48 h, UPLC-UV); format: physicochemical; settings: for solubility at 48 h: water, thermodynamic from solid
Method: Samples were centrifuged at 20,000 × g for 10 min to separate the solubilized drug from insoluble pellet. Aqueous supernatants were frozen, lyophilized, and then resuspended in MeOH. 1-octanol supernatants were prepared for analysis by dilution in MeOH and samples analyzed for drug content by UPLC-UV (Waters Acquity H Class).

[3] = Prodrug chemical stability of dissociated nanoformulations in pH 2.0-10.3 buffers; format: physicochemical; settings: buffers pH 2.0-10.3, 24 h
Method: The mixtures were centrifuged at 16,000 × g for 10 min. The supernatants were aspirated and stored at −80 °C until ultraperformance liquid chromatography tandem mass spectrometry (UPLC-MS/MS) analysis.

[4] = cited from earlier work
HIV-1 = settings: cited from earlier work
[5] = Log Drug Concentration (uM) -12
[6] = Figure 1C source data, read-out: water solubility, individual replicates
[7] = room temperature, 48 h, read-out: aqueous solubilities

Compound	% GFP Positive (HIV-1NL4–3-eGFP; Log Drug Concentration (uM) 0)	% GFP Positive (HIV-1NL4–3-eGFP; Log Drug Concentration (uM) -1)	% GFP Positive (HIV-1NL4–3-eGFP; Log Drug Concentration (uM) -2)	% GFP Positive (HIV-1NL4–3-eGFP; Log Drug Concentration (uM) -3)	% GFP Positive (HIV-1NL4–3-eGFP; Log Drug Concentration (uM) -4)	% GFP Positive (HIV-1NL4–3-eGFP; Log Drug Concentration (uM) -5)	% GFP Positive (HIV-1NL4–3-eGFP; Log Drug Concentration (uM) -6)	% GFP Positive (HIV-1NL4–3-eGFP; Log Drug Concentration (uM) -9)	% GFP Positive (HIV-1NL4–3-eGFP; [5])	EC50 (HIV-1ADA)	HIV-1 RT activity (Figure 2C source data) (HIV-1ADA; 5e-5 nM)	HIV-1 RT activity (Figure 2C source data) (HIV-1ADA; 0.0005 nM)	HIV-1 RT activity (Figure 2C source data) (HIV-1ADA; 0.005 nM)	HIV-1 RT activity (Figure 2C source data) (HIV-1ADA; 0.05 nM)	HIV-1 RT activity (Figure 2C source data) (HIV-1ADA; 0.5 nM)	HIV-1 RT activity (Figure 2C source data) (HIV-1ADA; 5 nM)	HIV-1 RT activity (Figure 2C source data) (HIV-1ADA; 50 nM)	HIV-1 RT activity (Figure 2C source data) (HIV-1ADA; 500 nM)	HIV-1 RT activity (Figure 2C source data) (HIV-1ADA; 5000 nM)	water solubility, individual replicates ([2]; Figure 1C source data)	also measured
CCCCCCCCCCCCCCCCCCCCCCOC(=O)[C@H](Cc1ccccc1)NP(=O)(CO[C@H](C)Cn1cnc2c(N)ncnc21)Oc1ccccc1 (stereo partly drawn) [M1TFV]	0.301% and 0.201% and 0.21%	3.432% and 0.342% and 0.154%	34.73% and 38.138% and 34.265%	36.744% and 32.312% and 31.881%	44.656% and 35.338% and 30.526%	36.768% and 35.49% and 33.571%	35.681% and 31.592% and 30.989%	32.583% and 32.39% and 32.614%	35.706% and 34.095% and 37.882%	109 nM	44.264 and 8.411 and 11.973	42.363 and 4.488 and 5.375 and 2.931	26.663 and 5.953 and 9.965 and 9.489	19.017 and 5.47 and 12.158 and 10.741	23.553 and 6.74 and 16.993 and 9.609	22.939 and 4.566 and 20.189 and 10.617	10.793 and 9.389 and 15.273 and 9.576	1.18 and 0.8 and 2.373 and 0.711	0.069 and 0.042 and 0.107 and 0.063	0.0003886	prodrug stability in human plasma [1]: greater prodrug stability is observed following heat-inactivation; solubility at 48 h [2, 6]: 0.276 µg/mL (≈ 0.338 µM); solubility at 48 h [2, 7]: 2 µg/mL (≈ 2.44 µM); hydrolytic stability across pH [3]: enhanced prodrug stability over a broader pH range
CCCCCCCCCCCCCCCCCCCCCCOC(=O)[C@H](C)NP(=O)(CO[C@H](C)Cn1cnc2c(N)ncnc21)Oc1ccccc1 (stereo partly drawn) [M2TFV]	–	34.257% and 38.787% and 40.022%	32.595% and 37.488% and 35.513%	41.233% and 50.41% and 33.492%	35.706% and 41.394% and 37.81%	40.045% and 36.193% and 55.429%	38.435% and 46.924% and 37.203%	35.618% and 35.142% and 32.671%	34.002% and 36.532% and 30.423%	45.8 nM	13.739 and 9.752 and 35.142 and 27.238	8.448 and 5.392 and 11.763 and 48.649	4.57 and 12.93 and 25.65	20.147 and 8.847 and 17.324 and 34.222	8.161 and 9.38 and 10.627 and 29.921	11.203 and 10.291 and 8.118 and 21.328	5.19 and 8.444 and 10.014 and 13.232	0.193 and 0.074 and 0.345 and 0.105	0.109 and 0.079 and 0.087 and 0.068	0.01251	solubility at 48 h [2, 6]: 12.8 µg/mL (≈ 17.2 µM); solubility at 48 h [2, 7]: 7 µg/mL (≈ 9.42 µM)
C[C@@H](Cn1cnc2c(N)ncnc21)OCP(=O)(O)OP(=O)(O)OP(=O)(O)O [TFV-DP, TFV-diphosphate]	–	–	–	–	–	–	–	–	–	–	–	–	–	–	–	–	–	–	–	–	intracellular half-life [4]: 60 to 100 h; EC90 linked to HIV-1 prevention (HIV-1): 16−48 fmol/10^6 cells; human EC90 (HIV-1): 40 fmol/10^6 cells
C[C@H](Cn1cnc2c(N)ncnc21)OCP(=O)(O)O [TFV]	36.84% and 37.843%	31.924% and 40.715% and 38.216%	37.754% and 35.95% and 31.757%	42.49% and 36.095% and 44.333%	39.731% and 37.304% and 35.107%	38.31% and 35.838% and 38.644%	32.278% and 38.458% and 41.384%	41.35% and 30.768%	42.035% and 35.935% and 39.23%	–	–	–	–	–	–	–	–	–	–	–	–
